In patent US11207320B2, “Compositions and methods for cancer expressing PDE3A or SLFN12” (The Broad Institute, Inc., priority 2015, dated 2021):

Tests used:
HeLa cells = assay: Compound sensitivity testing in cell lines (48 h viability); type: cell-based
Description: 1500 NCI-H1734 or 1000 A549 cells were plated in a 384-well plate in 40 μl of RPMI supplemented with 10% Fetal Bovine Serum and 1% Pen/Strep. 24 hours after plating, a compound-library of 1924 small molecules was added at a concentration of 10 μM. Staurosporine was used a positive control for cytotoxicity at a concentration of 10 μM, and DMSO was used a negative control at a concentration of 1%. All compounds were incubated for 48 hours with indicated small molecules. After 48 hours, 384-well plates were removed from the incubator and allowed to cool to room temperature for 20 minutes. Cell viability was assessed by adding 40 μl of a 25% CELLTITERGLO® (Promega) in PBS with a THERMO COMBI™ or multichannel-pipette and incubated for 10 minutes. The luminescence signal was read using a Perkin-Elmer EnVision. Viability percentage was calculated by normalizing to DMSO controls.
1000 HeLa (DMEM), 1000 A549 (RPMI), 500 MCF-7 (DMEM), 4000 PC3 (F12-K), 1000 NCI-H2122 (RPMI) or 1500 NCI-H1563 (RPMI) cells were plated in a 384-well plate in 40 μl of corresponding growth media supplemented with 10% Fetal Bovine Serum. 24 hours after plating, indicated compounds were added at indicated concentrations and incubated for 48 hours. Cell viability was assessed as described in Compound library screening in NCI-H1734 and A549 cell lines.

PDE3A(677-1141) = target: T1, PDE3A(677-1141) (Homo sapiens, UniProt Q14432); assay: Differential scanning fluorimetry (DSF) binding; conditions: 5 μM protein, 100 μM compound
T1 construct: purified PDE3A catalytic domain, PDE3A(677-1141)
T1 sequence (Q14432 677-1141): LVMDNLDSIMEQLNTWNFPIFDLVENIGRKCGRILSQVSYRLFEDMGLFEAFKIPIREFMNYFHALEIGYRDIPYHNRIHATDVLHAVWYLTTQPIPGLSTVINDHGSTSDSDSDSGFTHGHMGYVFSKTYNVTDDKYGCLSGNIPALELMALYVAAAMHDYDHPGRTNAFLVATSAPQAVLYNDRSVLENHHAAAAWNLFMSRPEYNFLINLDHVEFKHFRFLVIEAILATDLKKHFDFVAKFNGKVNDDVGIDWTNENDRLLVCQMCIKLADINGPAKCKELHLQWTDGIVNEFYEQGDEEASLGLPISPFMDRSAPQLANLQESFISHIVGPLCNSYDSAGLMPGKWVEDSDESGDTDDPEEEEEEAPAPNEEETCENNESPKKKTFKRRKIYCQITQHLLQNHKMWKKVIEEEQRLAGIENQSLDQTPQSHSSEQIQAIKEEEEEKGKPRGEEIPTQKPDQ
Description: Binding buffer: 20 mM Hepes pH 7.4, 100 μM TCEP, 1 mM MgCl2, 150 mM NaCl.

PDE3A = PDE3A (Homo sapiens, UniProt Q14432); assay: Immunoprecipitation of PDE3A in HeLa cells with iTRAQ/MS proteomics; design: Immunoprecipitation of endogenous PDE3A in HeLa cells; endogenous in cells; host or cells: HeLa; conditions: 10 μM, four hours
Chain of PDE3A (Q14432 whole entry): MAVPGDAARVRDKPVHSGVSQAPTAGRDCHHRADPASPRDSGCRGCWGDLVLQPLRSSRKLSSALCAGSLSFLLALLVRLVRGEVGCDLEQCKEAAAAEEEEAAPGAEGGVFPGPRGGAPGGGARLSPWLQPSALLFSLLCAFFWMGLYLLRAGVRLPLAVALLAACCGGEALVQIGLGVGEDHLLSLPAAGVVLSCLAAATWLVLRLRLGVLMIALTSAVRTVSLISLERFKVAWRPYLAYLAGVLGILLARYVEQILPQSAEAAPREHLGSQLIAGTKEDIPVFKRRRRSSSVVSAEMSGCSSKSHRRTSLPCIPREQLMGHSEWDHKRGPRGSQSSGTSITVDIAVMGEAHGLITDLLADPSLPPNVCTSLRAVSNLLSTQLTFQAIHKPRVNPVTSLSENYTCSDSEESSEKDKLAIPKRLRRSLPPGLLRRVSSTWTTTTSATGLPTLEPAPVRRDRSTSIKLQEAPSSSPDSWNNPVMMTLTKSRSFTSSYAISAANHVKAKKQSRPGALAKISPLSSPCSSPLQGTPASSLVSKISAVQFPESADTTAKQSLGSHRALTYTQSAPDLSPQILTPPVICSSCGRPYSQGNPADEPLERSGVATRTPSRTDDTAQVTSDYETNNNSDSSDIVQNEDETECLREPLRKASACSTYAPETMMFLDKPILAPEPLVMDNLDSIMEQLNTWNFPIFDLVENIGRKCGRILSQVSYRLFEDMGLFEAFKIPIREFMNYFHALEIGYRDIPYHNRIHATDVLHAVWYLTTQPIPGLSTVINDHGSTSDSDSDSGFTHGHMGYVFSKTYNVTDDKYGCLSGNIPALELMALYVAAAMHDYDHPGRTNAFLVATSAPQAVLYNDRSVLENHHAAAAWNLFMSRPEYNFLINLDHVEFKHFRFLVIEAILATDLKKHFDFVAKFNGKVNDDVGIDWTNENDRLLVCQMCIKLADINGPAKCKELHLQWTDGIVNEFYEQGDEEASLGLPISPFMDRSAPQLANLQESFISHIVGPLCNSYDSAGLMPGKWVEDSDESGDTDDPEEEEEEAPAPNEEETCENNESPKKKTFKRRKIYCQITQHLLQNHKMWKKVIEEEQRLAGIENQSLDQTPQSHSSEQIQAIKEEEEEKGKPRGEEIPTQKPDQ
From the text: The dependence of 6-(4-(diethylamino)-3-nitrophenyl)-5-methyl-4,5-dihydropyridazin-3(2H)-one (DNMDP) cytotoxicity on phosphodiesterase 3A (PDE3A) protein abundance indicated a possible mechanism similar to that recently observed for lenalidomide, which acts by a neomorphic or hypermorphic mechanism by stabilizing an interaction between cereblon and IKAROS Family Zinc Finger 1 (IKZF1) and IKZF3 (Krönke et al., Science 343, 301-305, 2014; Lu et al., Science 343, 305-309, 2014). […] The protein complexes in which PDE3A resides were characterized under normal conditions, and it was examined how these complexes change when PDE3A is bound to DNMDP or the non-cytotoxic PDE3 inhibitor trequinsin. PDE3A and interacting proteins from Hela cells were immunoprecipitated in the presence of DNMDP and trequinsin followed by labeling with isobaric stable isotope tags for relative abundance and quantitation by mass spectrometry (iTRAQ/MS, FIG. 13A). […]
Desalted peptides were labeled with isobaric tags for relative and absolute quantification (iTRAQ)-reagents according to the manufacturer's instructions (AB Sciex, Foster City, Calif.). […]
Reconstituted peptides were separated on an online nanoflow EASY-NLC™ 1000 UHPLC system (Thermo Fisher Scientific) and analyzed on a benchtop Orbitrap Q EXACTIVE™ mass spectrometer (Thermo Fisher Scientific). […]

Row | Tm (° C.) (PDE3A(677-1141)) [°C] | ΔTm at 100 µM (PDE3A(677-1141)) [°C] | enrichment of SIRT7 and SLFN12 in PDE3A immunoprecipitates (PDE3A) | EC50 (HeLa cells; Homo sapiens, HeLa cervical carcinoma cells) [nM] | SMILES | effect on HeLa cell viability / cytotoxicity (HeLa cells; HeLa) | EC70 (HeLa cells; HeLa) [nM]
1 | 66.2 ± 0.0 | 14.2 | not observed | – | COc1cc2c(cc1OC)-c1c/c(=N\c3c(C)cc(C)cc3C)n(C)c(=O)n1CC2 [trequinsin, 9,10-dimethoxy-3-methyl-2-(2,4,6-trimethylphenyl)imino-6,7-dihydropyrimido[6,1-a]isoquinolin-4-one] | did not affect HeLa cell viability in any detectable way | –
2 | 58.4 ± 0.0 | 6 | specifically enriched | 10 to 100 | CCN(CC)c1ccc(C2=NNC(=O)CC2C)cc1[N+](=O)[O-] (stereo not drawn) [DNMDP, 6-(4-(diethylamino)-3-nitrophenyl)-5-methyl-4,5-dihydropyridazin-3(2H)-one] | – | 30
